In general, IC50 refers to the concentration needed to halve the response being measured.

The record followed here is ChEMBL document CHEMBL5154749 (Eur J Med Chem, 2022).

Structures are written as SMILES. Some results are limits rather than exact numbers.

One experiment concerns HT-29. The experiment can be described thus: Cytotoxicity against ATM proficient human HT-29 cells assessed as reduction in cell viability incubated for 72 hrs by MTT assay. The class given is functional, cell-based. As to conditions: HT-29, 72 h. In general terms: Formazan colour is commonly taken as a measure of viable cells.
For `CC(C)n1c(=O)n(C)c2cnc3cc(F)c(-c4ccc(OCCCN5CCCCC5)nc4)cc3c21` [AZD-1390], the concentration for half-maximal inhibition (IC50) is above 10000 nM.

The target in a further experiment is Serine/threonine-protein kinase ATR (Homo sapiens, UniProt Q13535). The experiment in a line: Inhibition of human recombinant full length ATR using GST-cMyc-p53 as substrate incubated for 40 mins in presence of ATP by HTRF assay.
Chain of Serine/threonine-protein kinase ATR (Q13535 whole entry): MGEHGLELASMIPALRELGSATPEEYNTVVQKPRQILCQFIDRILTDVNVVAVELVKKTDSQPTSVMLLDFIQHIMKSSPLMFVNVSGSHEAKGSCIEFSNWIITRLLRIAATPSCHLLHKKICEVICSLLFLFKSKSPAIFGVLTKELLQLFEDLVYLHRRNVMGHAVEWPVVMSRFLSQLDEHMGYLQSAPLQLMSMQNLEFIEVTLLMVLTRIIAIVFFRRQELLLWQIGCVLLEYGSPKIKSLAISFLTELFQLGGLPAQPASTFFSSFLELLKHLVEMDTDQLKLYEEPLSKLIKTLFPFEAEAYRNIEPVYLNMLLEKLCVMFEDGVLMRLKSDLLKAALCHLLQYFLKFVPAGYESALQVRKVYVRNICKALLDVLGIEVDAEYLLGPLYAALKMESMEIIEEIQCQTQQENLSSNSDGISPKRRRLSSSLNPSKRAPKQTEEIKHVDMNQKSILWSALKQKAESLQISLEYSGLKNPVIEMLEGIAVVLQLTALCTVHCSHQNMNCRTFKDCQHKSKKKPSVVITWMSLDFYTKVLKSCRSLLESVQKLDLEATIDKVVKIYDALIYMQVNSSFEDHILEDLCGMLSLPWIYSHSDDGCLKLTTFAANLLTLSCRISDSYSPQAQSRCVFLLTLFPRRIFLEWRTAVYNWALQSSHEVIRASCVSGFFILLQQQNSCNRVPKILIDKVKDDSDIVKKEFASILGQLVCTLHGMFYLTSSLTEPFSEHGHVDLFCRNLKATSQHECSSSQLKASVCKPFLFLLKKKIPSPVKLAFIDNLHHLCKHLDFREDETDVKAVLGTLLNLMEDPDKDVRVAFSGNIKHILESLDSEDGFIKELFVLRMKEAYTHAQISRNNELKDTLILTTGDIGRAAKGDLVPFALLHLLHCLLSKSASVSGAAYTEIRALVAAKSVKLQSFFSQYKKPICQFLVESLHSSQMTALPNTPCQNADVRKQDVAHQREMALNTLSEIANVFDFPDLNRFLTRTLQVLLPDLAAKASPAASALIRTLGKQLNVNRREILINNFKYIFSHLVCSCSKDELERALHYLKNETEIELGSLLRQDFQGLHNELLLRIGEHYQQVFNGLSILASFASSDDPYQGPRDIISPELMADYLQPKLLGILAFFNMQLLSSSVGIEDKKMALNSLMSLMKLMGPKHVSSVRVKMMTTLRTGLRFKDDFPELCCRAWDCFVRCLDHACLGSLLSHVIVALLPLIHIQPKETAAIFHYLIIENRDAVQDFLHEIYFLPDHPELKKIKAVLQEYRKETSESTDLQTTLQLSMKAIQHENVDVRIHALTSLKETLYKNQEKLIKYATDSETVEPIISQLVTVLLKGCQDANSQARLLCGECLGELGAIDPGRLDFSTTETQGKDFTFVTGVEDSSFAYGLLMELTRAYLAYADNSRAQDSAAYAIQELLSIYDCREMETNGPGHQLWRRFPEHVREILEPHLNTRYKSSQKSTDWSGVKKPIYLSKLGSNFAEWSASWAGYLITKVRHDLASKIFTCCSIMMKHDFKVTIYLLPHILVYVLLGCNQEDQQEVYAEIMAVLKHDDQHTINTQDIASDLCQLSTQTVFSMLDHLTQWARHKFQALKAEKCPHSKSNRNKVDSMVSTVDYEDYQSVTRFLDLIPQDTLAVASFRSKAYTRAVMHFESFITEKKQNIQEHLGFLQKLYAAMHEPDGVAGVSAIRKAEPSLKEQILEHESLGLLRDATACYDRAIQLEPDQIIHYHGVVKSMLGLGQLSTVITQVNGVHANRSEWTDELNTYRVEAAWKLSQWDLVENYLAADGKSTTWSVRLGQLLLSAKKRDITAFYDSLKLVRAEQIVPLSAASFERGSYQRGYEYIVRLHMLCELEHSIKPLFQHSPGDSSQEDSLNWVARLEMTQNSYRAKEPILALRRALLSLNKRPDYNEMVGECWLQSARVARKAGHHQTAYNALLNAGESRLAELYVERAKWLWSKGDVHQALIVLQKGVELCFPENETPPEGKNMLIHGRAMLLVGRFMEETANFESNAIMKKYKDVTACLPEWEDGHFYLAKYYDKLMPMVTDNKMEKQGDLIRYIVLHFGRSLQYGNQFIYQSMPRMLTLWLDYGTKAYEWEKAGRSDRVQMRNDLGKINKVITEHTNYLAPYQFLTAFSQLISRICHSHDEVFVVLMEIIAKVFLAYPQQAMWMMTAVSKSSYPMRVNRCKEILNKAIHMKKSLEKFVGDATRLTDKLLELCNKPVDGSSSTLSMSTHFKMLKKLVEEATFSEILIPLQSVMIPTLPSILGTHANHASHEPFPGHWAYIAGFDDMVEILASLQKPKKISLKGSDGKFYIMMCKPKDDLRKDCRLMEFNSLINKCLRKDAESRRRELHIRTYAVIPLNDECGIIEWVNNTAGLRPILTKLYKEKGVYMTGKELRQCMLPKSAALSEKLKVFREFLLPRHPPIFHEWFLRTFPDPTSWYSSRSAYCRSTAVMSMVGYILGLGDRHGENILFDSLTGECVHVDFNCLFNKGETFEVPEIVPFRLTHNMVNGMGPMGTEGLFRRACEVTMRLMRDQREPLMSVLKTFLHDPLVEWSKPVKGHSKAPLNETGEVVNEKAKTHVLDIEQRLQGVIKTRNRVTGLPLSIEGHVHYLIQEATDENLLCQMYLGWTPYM
Conditions: not given
(In general: Time-resolved FRET reads energy transfer from a long-lived donor to a nearby acceptor.)
As for `Cn1nccc1-c1ccc2nc(-c3cccc4[nH]ccc34)nc(N3CC4CC3CO4)c2c1` (configuration not stated), the IC50 amounted to 609 nM.

With `Cn1nccc1-c1ccc2nc(-c3cccc4[nH]ccc34)nc(N3CCN(S(C)(=O)=O)CC3)c2c1`, the IC50 was above 10000 nM.

Regarding `Cc1ccc2[nH]ncc2c1-c1nc(N2CCOC[C@H]2C)c2cc(-c3ccnn3C)ccc2n1`, the IC50 is above 10000 nM.

On to `C[C@@H]1COCCN1c1nc(-c2cccc3[nH]ccc23)nc2ccc(-c3ccc(=O)n(C)c3)cc12`, for which the IC50 stood at 194 nM.

Consider `Cc1noc(C)c1-c1ccc2nc(-c3cccc4[nH]ccc34)nc(N3CCOC[C@H]3C)c2c1`, for which the concentration for half-maximal inhibition (IC50) is 32 nM.

For the compound `C[C@@H]1COCCN1c1nc(-c2cccc3[nH]ccc23)nc2ccc(-c3cncn3C)cc12`, the IC50 turned out to be 33 nM.

Take `C[C@@H]1COCCN1c1nc(-c2cccc3[nH]ccc23)nc2ccc(-c3ccncc3)cc12`: the IC50 came out at 275 nM.

Regarding `Cn1nccc1-c1ccc2nc(-c3cccc4[nH]ccc34)nc(N3CC4CCC(C3)O4)c2c1`, the IC50 amounted to 45 nM.

Turning to `Cn1nccc1-c1ccc2nc(-c3cccc4[nH]ccc34)nc(N3CCOCC3)c2c1`, the IC50 was 89 nM.

With `C[C@@H]1COCCN1c1nc(-c2ccnc3[nH]ccc23)nc2ccc(-c3ccnn3C)cc12`, the IC50 is 115 nM.

With `Cn1nccc1-c1ccc2nc(-c3cccc4[nH]ccc34)nc(N3CCC[C@@H](N)C3)c2c1`, the concentration for half-maximal inhibition (IC50) is above 10000 nM.

Take `C[C@@H]1COCCN1c1nc(-c2cccc3[nH]ccc23)nc2ccc(-c3cccnc3)cc12`: the 50% inhibitory concentration (IC50) worked out at 183 nM.

In the case of `C[C@@H]1COCCN1c1nc(-c2c[nH]c3ccccc23)nc2ccc(-c3ccnn3C)cc12`, the concentration for half-maximal inhibition (IC50) was 215 nM.

For `C[C@@H]1COCCN1c1nc(-c2cc(F)cc3[nH]ccc23)nc2ccc(-c3ccnn3C)cc12`, the IC50 was determined as 96 nM.

For the compound `C[C@@H]1COCCN1c1nc(-c2cccc3[nH]ccc23)nc2ccc(-c3ccsc3)cc12`, the IC50 turned out to be 2790 nM.

Regarding `COC(=O)C1CN(c2nc(-c3cccc4[nH]ccc34)nc3ccc(-c4ccnn4C)cc23)CCO1` (configuration not stated), the IC50 is above 10000 nM.

Take `C[C@@H]1COCCN1c1nc(-c2cccc3[nH]ccc23)nc2ccc(-c3ccnn3C3CCCCO3)cc12` (some centres not stated): the IC50 was 435 nM.

As to `C[C@@H]1COCCN1c1nc(-c2cc[nH]n2)nc2ccc(-c3ccnn3C)cc12`, the concentration for half-maximal inhibition (IC50) was above 10000 nM.

As for `C[C@@H]1COCCN1c1nc(-c2cnn(C3CCNCC3)c2)nc2ccc(-c3ccnn3C)cc12`, the IC50 is above 10000 nM.

Regarding `Cn1nccc1-c1ccc2nc(-c3cccc4[nH]ccc34)nc(N3CCC[C@H](N)C3)c2c1`, the half-maximal inhibitory concentration (IC50) was above 10000 nM.

`C[C@@H]1COCCN1c1nc(-c2cccc3[nH]ccc23)nc2ccc(-c3ccc(C#N)nc3)cc12`: the half-maximal inhibitory concentration (IC50) was above 10000 nM.

As to `C[C@@H]1CN(c2nc(-c3cccc4[nH]ccc34)nc3ccc(-c4ccnn4C)cc23)C[C@H](C)O1`, the concentration for half-maximal inhibition (IC50) is above 10000 nM.

Take `C[C@@H]1COCCN1c1nc(-c2c[nH]c3ncc(F)cc23)nc2ccc(-c3ccnn3C)cc12`: the half-maximal inhibitory concentration (IC50) was 3550 nM.

In the case of `C[C@@H]1COCCN1c1nc(-c2cn[nH]c2)nc2ccc(-c3ccnn3C)cc12`, the IC50 was above 10000 nM.

Regarding `CCOC(c1ccc2nc(-c3cccc4[nH]ccc34)nc(N3CCOC[C@H]3C)c2c1)n1cccn1` (some centres not stated), the half-inhibitory concentration (IC50) is 901 nM.

For the compound `C[C@@H]1COCCN1c1nc(-c2cccc3[nH]ccc23)nc2ccc(-c3cnn(C)c3)cc12`, the IC50 was 700 nM.

Turning to `C[C@@H]1COCCN1c1nc(-c2cnc3[nH]ccc3c2)nc2ccc(-c3ccnn3C)cc12`, the half-maximal inhibitory concentration (IC50) was 1770 nM.

With `C[C@@H]1COCCN1c1nc(-c2c[nH]c3ncccc23)nc2ccc(-c3ccnn3C)cc12`, the half-maximal inhibitory concentration (IC50) turned out to be 3320 nM.

In the case of `Cn1nccc1-c1ccc2nc(-c3cccc4[nH]ccc34)nc(N3CCC(N)C3)c2c1` (configuration not stated), the IC50 is above 10000 nM.

Consider `C[C@@H]1COCCN1c1nc(-c2cccc3[nH]ccc23)nc2ccc(-c3ccccc3)cc12`, for which the half-maximal inhibitory concentration (IC50) came to 2980 nM.

With `C[C@@H]1COCCN1c1nc(-c2cccc3[nH]ccc23)nc2ccc(-c3ccc(N4CCOCC4)nc3)cc12`, the IC50 came out at 578 nM.

In the case of `C[C@@H]1COCCN1c1nc(-c2cccc3[nH]ccc23)nc2ccc(-c3cccn3C)cc12`, the IC50 was 289 nM.

Turning to `Cn1nccc1-c1ccc2nc(-c3cccc4[nH]ccc34)nc(N3C4CCC3COC4)c2c1`, the IC50 was determined as 25 nM.

For `CC(C)n1nccc1-c1ccc2nc(-c3cccc4[nH]ccc34)nc(N3CCOC[C@H]3C)c2c1`, the IC50 worked out at 83 nM.

For `C[C@H]1COCCN1c1nc(-c2cccc3[nH]ccc23)nc2ccc(-c3ccnn3C)cc12`, the IC50 is 700 nM.

`C[C@@H]1COCCN1c1nc(-c2cc(C(F)(F)F)cc3[nH]ccc23)nc2ccc(-c3ccnn3C)cc12`: the IC50 is above 10000 nM.

With `C[C@@H]1CNCCN1c1nc(-c2cccc3[nH]ccc23)nc2ccc(-c3ccnn3C)cc12`, the IC50 is above 10000 nM.

Consider `CCn1nccc1-c1ccc2nc(-c3cccc4[nH]ccc34)nc(N3CCOC[C@H]3C)c2c1`, for which the IC50 worked out at 18 nM.

Regarding `Cc1ncc(-c2ccc3nc(-c4cccc5[nH]ccc45)nc(N4CCOC[C@H]4C)c3c2)s1`, the IC50 was 2440 nM.

Regarding `Cn1nccc1-c1ccc2nc(-c3cccc4[nH]ccc34)nc(N3CC[C@H](N)C3)c2c1`, the half-maximal inhibitory concentration (IC50) is above 10000 nM.

As to `C[C@@H]1COCCN1c1nc(-c2cccc3[nH]ccc23)nc2ccc(-c3ccoc3)cc12`, the concentration for half-maximal inhibition (IC50) was found to be 2370 nM.
